Experiment [1] relates to HCV Genotype 1 (either Genotype 1a or Genotype 1b). Description: Rising multiple dose study in non-responder patients, HCV-RNA viral load by RT-PCR. Type of experiment: in vivo. The method, then: A rising multiple dose study was conducted in four groups of non-responder patients in which 100, 200 and 400 mg BID and 400 mg TID dosages of the compound of Formula la were administered for 14 days. […] The methodology used was a randomized, placebo controlled, multi-center, third-party-blind, multiple-dose study of the compound of Formula Ia in non-responders conducted in accordance with Good Clinical Practices. For the purpose of this study, it should be noted that the non-responders also were patients in whom one or more symptoms were established in association with, or the possibility of one or more symptoms was suspected of in association with, HCV Genotype 1 (either Genotype 1a or Genotype 1b) specifically. In order to measure viral load, the Hepatitis C virus RNA (HCV-RNA) is measured by extracting total RNA from plasma or serum samples and using an in-house real-time reverse transcriptase polymerase chain reaction (RT-PCR) assay with a lower limit of detection of 29 International Units (IU)/mL. The amplification target is the 5′-Untranslated region (UTR) of the HCV genome. An internal RNA control is added to each sample to assess the efficiency of RNA extraction. Appropriate negative and positive controls are added in each assay run. The assay method has been validated against the WHO International Standard for HCV. The HCV-RNA amount in a sample is reported as copies of HCV-RNA per mL of sample and also as HCV IU per mL of sample. When <100 copies of HCV-RNA per mL are found, the HCV-RNA is considered to be undetectible.

The test system of experiment [2] is HCV Genotype 1 (1a or 1b). Kind of experiment: Parallel group, rising multiple-dose, 3 period crossover study in non-responders, HCV-RNA viral load. Type of experiment: in vivo, patients. The method, then:
In order to measure viral load, the Hepatitis C virus RNA (HCV-RNA) is measured by extracting total RNA from plasma or serum samples and using an in-house real-time reverse transcriptase polymerase chain reaction (RT-PCR) assay with a lower limit of detection of 29 International Units (IU)/mL. The amplification target is the 5′-Untranslated region (UTR) of the HCV genome. An internal RNA control is added to each sample to assess the efficiency of RNA extraction. Appropriate negative and positive controls are added in each assay run. The assay method has been validated against the WHO International Standard for HCV. The HCV-RNA amount in a sample is reported as copies of HCV-RNA per mL of sample and also as HCV IU per mL of sample. When <100 copies of HCV-RNA per mL are found, the HCV-RNA is considered to be undetectible.
A second study was commenced in patients having detectible levels ([…] copies per mL tissue or fluid) HCV Genotype 1 (1a or 1b) and whom were already established as non-responders from previous trials.
The methodology of the study was a parallel group, rising, multiple-dose, 3 period crossover (within each group) study in which subjects are treated with pegylated interferon (PEG-Intron, commercially available from Schering-Plough), 1.5 mcg/kg of the compound of Formula Ia or combination treatment of PEG-Intron 1.5 mcg/kg and the compound of Formula Ia. The doses of the compound of Formula Ia used for each group were 200 mg TID or 400 mg TID.
Twelve patients were treated in a random sequence with each 200 mg TID dose of the compound of Formula Ia alone for 7 days, PEG-Intron once weekly for two doses, and a combination treatment of 200 mg TID of the compound of Formula la plus PEG-Intron for 14 days. Preliminary results from the 200 mg TID dose group are illustrated in FIG. 2.

Here are results for one molecule from US20070004635A1, “Method of treating interferon non-responders using HCV protease inhibitor” (Schering Corporation, priority 2005, published 2007).

Molecules are shown by their SMILES.

`CC(C)(C)NC(=O)N[C@H](C(=O)N1C[C@H]2[C@@H]([C@H]1C(=O)NC(CC1CCC1)C(=O)C(N)=O)C2(C)C)C(C)(C)C` (mixture of isomers) [Formula Ia]: in experiment [1] (400 mg TID for 14 days, monotherapy, 10 non-responder patients), the “average maximum reduction of viral load from baseline” value turned out to be 2 logs. Besides, in experiment [1] (100, 200 and 400 mg BID and 400 mg TID for 14 days), the “effect of monotherapy on viral load” value is listed as “reduced viral load in all patients”. Moreover, the “HCV-RNA viral load following discontinuation of treatment” value in experiment [1] (after the 14-day treatment, all patients) is given as “returned to baseline levels in all patients”. Besides, in experiment [2] (200 mg TID alone for 7 days, preliminary results), the “mean maximum HCV-RNA reduction” value was found to be 0.85 logs. Also, the “average maximum reduction in HCV-RNA viral load” value in experiment [2] (200 mg TID in combination with PEG-Intron 1.5 mcg/kg weekly, two weeks of treatment) amounted to 2.4 logs. Also, the “course of viral load in the second week” value in experiment [2] (200 mg TID in combination with PEG-Intron, 14 days) was “viral load continued to decline in the second week”. The “HCV-RNA viral load level of one patient at the end of therapy (undetectible)” value in experiment [2] (200 mg TID in combination with PEG-Intron, end of 14 days, one patient (decrease by 4.5 logs)) is < 100 copies per mL of tissue or fluid.
